# According to patent US20090220562A1, “Osteogenic and anti-adipogenic oxysterols” (priority 2005, published 2009):
# What was measured:
# Assay type in all cases: cell-based, mouse
# [1] = test system: M2-10B4 marrow stromal cells; experiment: Matrix mineralization (45Ca incorporation assay, von Kossa staining) in M2-10B4 marrow stromal cells; details: for induction of mineralization by individual oxysterols: 0.5 to less than 10 μM, as many as 14 days (data not shown)
# Experimental: (§1) Cells: M2-10B4 mouse marrow stromal cell line obtained from American Type Culture Collection (ATCC, Rockville, Md., U.S.A.) was derived from bone marrow stromal cells of a (C57BL/6J x C3H/HeJ) Fl mouse, and support human and murine myelopoiesis in long-term cultures (as per ATCC) and have the ability to differentiate into osteoblastic and adipocytic cells. Unless specified, these cells were cultured in RPMI 1640 containing 10% heat-inactivated FBS, and supplemented with 1 mM sodium pyruvate, 100 U/ml penicillin, and 100 U/ml streptomycin (all from Irvine Scientific).
# Von Kossa and oil red O staining—Matrix mineralization in cell monolayers was detected by silver nitrate staining as previously described. Oil red O staining for detection of adipocytes was performed as previously described.
# ^45Ca incorporation assay—Matrix mineralization in cell monolayers was quantified using the ^45Ca incorporation assay as previously described.
# After 14 days, mineralization was identified by a von Kossa staining, which appears black. FIG. 3C is a depiction of von Kossa staining of M2 cells exposed to various conditions.
# After 14 days, matrix mineralization in cultures was quantified using a ^45Ca incorporation assay.
# (§2) Next, a combination of 22R and 20S oxysterols (RS, 2.5 μM each) were added in the presence or absence of SC as indicated. After 3 days, ALP activity was measured as described earlier. […] (B) M2 cells were treated as described in (A) and after 10 days matrix mineralization in cultures was quantified by a ^45Ca incorporation assay as described earlier. […] (C) M2 cells were pretreated with 20 μM SC for 4 hours, followed by the addition of RS in the presence or absence of SC as described above. After 8 days, total RNA was isolated and analyzed for osteocalcin (Osc) and […] expression by Northern blotting as previously described. Data from densitometric analysis of the Northern blot is shown in (D) as the average of duplicate samples, normalized to 18S rRNA. (E) M2 cells at confluence were pretreated for 2 hours with control vehicle (C), or PLA2 inhibitors ACA (25 μM) and AACOCF3 (AAC, 20 μM), in osteogenic medium. Next, a combination of 22R and 20S oxysterols (RS, 2.5 μM) was added in the presence or absence of the inhibitors as indicated. After 3 days, ALP activity was measured as previously described. […] (F) M2 cells were treated as described in (E). After 10 days, matrix mineralization in cultures was quantified using a ^45Ca incorporation assay as previously described. Results from a representative of three experiments are shown, reported as the mean of quadruplicate determinations ±SD, normalized to protein concentration (p<0.01 for RS vs. RS+ACA and RS+AAC).
# (A) M2 cells at confluence were pretreated for four hours with RPMI containing 1% FBS, followed by treatment with control vehicle or 5 μM 20S oxysterol for 1, 4, or 8 hours. Next total cell extracts were prepared and analyzed for levels of native or phosphorylated ERK (pERK) using specific antibodies as previously described. Data from a representative of four experiments are shown, each treatment shown in duplicate samples. (B) M2 cells at confluence were pretreated for 2 hours with control vehicle (C) or 20 μM PD98059 (PD) in osteogenic medium as previously described. Next, a combination of 22R and 20S oxysterols (RS, 5 μM each) were added to appropriate wells as indicated. After 10 days of incubation, matrix mineralization was quantified by the ^45Ca incorporation assay as previously described. […] (C) M2 cells at confluence were pretreated for 2 hours with 20 µM PD98059 (PD) in RPMI containing 5% FBS. Next, the cells were treated with control vehicle (C), 10 μM troglitazone (Tro), or 10 μM of 20S or 22S oxysterols, alone or in combination as indicated. After 10 days, adipocytes were visualized by oil Red O staining and quantified by light microscopy as previously described. […]
# [2] = test system: M2-10B4 marrow stromal cells; experiment: Alkaline phosphatase (ALP) activity assay on whole cell extracts of M2-10B4 marrow stromal cells; details: for induction of alkaline phosphatase activity: 10 μM oxysterol, 3 days, osteogenic medium
# Experimental: as §1
# Cells were always treated at 90% confluence. […]
# as §2, with “Results from a representative of three experiments are shown, reported as the mean of quadruplicate determinations ±SD, normalized to protein concentration (p<0.01 for RS vs. RS+ACA and RS+AAC).” left out
# marrow stromal cells = experiment: Osteogenic differentiation of marrow stromal cells (marker not specified: ALP activity, osteocalcin mRNA, mineral formation); details: pretreatment and co-treatment; 20S 5-15 μM
# Experimental: The purpose of the study was to identify other osteogenic and anti-adipogenic oxysterols based on the chemical structure of previously identified oxysterols. The ability of such candidate oxysterol molecules to induce the formation of osteoblastic cells in cultures of marrow stromal cells (which are progenitors of osteoblastic cells that make bone) were tested. In order to assess osteogenic differentiation of cells, one or more markers of osteogenic differentiation were measured in untreated cells and cells treated with the test oxysterols. These markers included: alkaline phosphatase activity, osteocalcin mRNA expression and mineral formation in cultures of marrow stromal cells. Activation of either one or more than one marker by a single or combination oxysterols is indicative of their osteogenic property.
SMILES,induction of mineralization by individual oxysterols [1],mineralization ([1]; doses of 5-15 μM),induction of alkaline phosphatase activity [2],alkaline phosphatase (ALP) activity ([2]; doses of 5-15 μM),"enhancement of 20S-hydroxycholesterol's induction of ALP activity, Runx2 DNA binding and protein expression, osteocalcin mRNA expression and mineralization (marrow stromal cells)"
CC(C)CCC[C@](C)(O)[C@H]1CC[C@H]2[C@@H]3CC=C4C[C@@H](O)CC[C@]4(C)[C@H]3CC[C@@]21C [20S-hydroxycholesterol],unable to induce,induction,induced,induction,
CC(C)CC[C@@H](O)[C@@H](C)[C@H]1CC[C@H]2[C@@H]3CC=C4C[C@@H](O)CC[C@]4(C)[C@H]3CC[C@]12C [22R-hydroxycholesterol],unable to induce,,induced,,greatly enhanced
CC(C)CC[C@H](O)[C@@H](C)[C@H]1CC[C@H]2[C@@H]3CC=C4C[C@@H](O)CC[C@]4(C)[C@H]3CC[C@]12C [22S-hydroxycholesterol],unable to induce,,induced,,greatly enhanced
